We go through 22 compounds from patent EP0186452A2, “Organosilicon compounds process for their production and pharmaceutical compositions thereof” (SANWA KAGAKU KENKYUSHO CO., LTD., priority 1984, dated 1986).

Data set [1] in a line: Acute toxicity, oral dosage to mice, LD50. The following applies: mouse, in vivo, single dose suspended in 0.1% P-1570, ICR female mice, observed 21 days. The source says:
Each test compound suspended in 0.1% P-1570 was orally and forcedly dosed through a gastric probe to ICR female mice (21 - 22g, age of about 5 weeks). An identification number was given to each mouse, and weighing and observation on general behaviour were done just before the dosage and each day after the same. Each dead mouse was subjected without delay to an autopsy to check the same, more particularly in detail on enterona. All living mice were killed at the 21st day from the dosage to carry out an autopsy for checking the same, more particularly on the entrails.
An LD50 was calculated in accordance with Leed.and Munch's method.

The test system of data set [2] is B-16 melanoma. The data set can be described thus: Anti-tumor action to B-16 melanoma transplanted under skin of mice. The data set is classed as in vivo, BDF1 female mice. As to conditions: Mus musculus, B16, 504 h, 5th and 9th day, tumor weight at 21st day, read-out: Inhibition Ratio (%); for inhibition in vivo at 250 mg/kg: 250 mg/kg/day x 3, oral at 1st; for inhibition in vivo at 500 mg/kg: 500 mg/kg/day x 3, oral at 1st; for inhibition in vivo at 125 mg/kg: 125 mg/kg/day x 3, oral at 1st. An excerpt: A cancer cell of B-16 melanoma (1 x 10^5 cells) was transplanted under skin of BDF1 female mice (age of about 5 weeks), and each of testing compounds was orally dosed at lst, 5th and 9th day after the transplantation. At 21st day after the transplantation, the mice were killed to measure a weight of the formed cancerous tumor and to finally determine an inhibition ratio due to the dosage of the test compound.

Data set [3] relates to colon-38 carcinoma. In words: Anti-tumor action to colon-38 carcinoma transplanted under skin of mice. It counts as in vivo, BDF1 female mice. As to conditions: 5th and 9th day, tumor weight at 28th day vs non-treated control; for inhibition in vivo at 323 mg/kg: 323 mg/kg/day x 3, oral at 1st; for inhibition in vivo at 338 mg/kg: 338 mg/kg/day x 3, oral at 1st. Here is the method:
0.02 ml of 10(W/V) cell suspension prepared from a solid cancer cell (colon-38 carcinoma) was transplanted under skin of BDF1 female mice (20 - 21g, age of about 5 weeks), and each test compound was orally dosed at lst, 5th and 9th day after the transplantation. major and minor axes of the forming cancerous tumor were measured at llth, 14th, 18th, 21st, 25th and 28th day after the transplantation to calcuate the volume ofthe cancerous tumor in accordance with the equation: [formula] • wherein L: major axis (mm) • W: minor axis (mm)
At 28th day from the transplantation, the mice were killed and each of the cancerous tumors was enucleated to measure its weight and to determine an inhibition ratio in comparison with that in a non-treated control group.

Setting [4] is: Mus musculus, 672 h, read-out: Inhibition Ratio (%).

One may read the LD50 as the dose at which mortality reaches 50%. High values mean a less toxic substance, low ones a more toxic substance. Compound `CC(C)[Si](C)(C)CCCSCCCN` [Example 8, 3-[[3-(Isopropyldimethylsilyl)propyl]thio]propylamine] returned an LD50 at 504 h in data set [1] of over 1500 mg/kg. In data set [2], the inhibition in vivo at 250 mg/kg was found to be 61.1% and the inhibition in vivo at 500 mg/kg turned out to be 46.3%.
In turn, `CC(C)[Si](C)(C)CCCSCCN` [Example 6, Z-[[3-(Isopropyldimethylsilyl)propyl]thio]ethylamine] had an LD50 at 504 h in data set [1] of 1500 mg/kg.
The compound `CCCC[Si](C)(C)CCSCCN` [Example 3, 2-[[2-(n-Butyldimethylsilyl)ethyl]thio]ethylamine] showed an LD50 at 504 h in data set [1] of over 1500 mg/kg.
As to `C[Si](C)(CCCSCCCNC(=O)n1cc(F)c(=O)[nH]c1=O)c1ccccc1` [compound 11, 1-{3-{[3-(Dimethylphenylsilyl)propyl]thio}-propylcarbamoyl}-5-fluorouracil], in data set [3] (Mus musculus, 672 h, 339 mg/kg/day x 3, oral at 1st, read-out: Inhibition Ratio (%)), the inhibition in vivo at 339 mg/kg was found to be 97.9%. The LD50 at 504 h in data set [1] was 1800 mg/kg. In data set [2], the inhibition in vivo at 125 mg/kg was determined as 82.2% and the inhibition in vivo at 250 mg/kg is 70.5%.
In the case of `CCCC[Si](C)(C)CCSCCNC(=O)n1cc(F)c(=O)[nH]c1=O` [compound 3, 1-[2-[[2-(Dimethyl-n-butylsilyl)ethyl]thio]-ethylcarbamoyl]-5-fluorouracil], in data set [3] (Mus musculus, 672 h, 300 mg/kg/day x 3, oral at 1st, read-out: Inhibition Ratio (%)), the inhibition in vivo at 300 mg/kg is 81.2%. In addition, the LD50 at 504 h in data set [1] turned out to be 1380 mg/kg.
Turning to `CCCC[Si](C)(C)CCCSCCCNC(=O)n1cc(F)c(=O)[nH]c1=O` [compound 10, 1-{3-{[3-(n-Butyldimethylsilyl)propyl]thio}-propylcarbamoyl}-5-fluorouracil], the inhibition in vivo at 323 mg/kg in data set [3] (setting [4]) was found to be 92.3%. Besides, in data set [1], the LD50 at 504 h was 1850 mg/kg. Besides, in data set [2], the inhibition in vivo at 125 mg/kg stood at 69.5% and the inhibition in vivo at 250 mg/kg was determined as 88.5%.
As to `CC(C)[Si](C)(C)CCCSCCNC(=O)n1cc(F)c(=O)[nH]c1=O` [compound 6, 1-[2-[[3-(Dimethylisopropylsilyl)propyl]thio]-ethylcarbamoyl]-5-fluorouracil], the inhibition in vivo at 338 mg/kg in data set [3] (setting [4]) is 95.9%. The LD50 at 504 h in data set [1] is 1820 mg/kg.
In data set [1], `CC(C)(C)[Si](C)(C)CCCSCCCN` [Example 9, 3-[[3-(t-Butyldimethylsilyl)propyl]thio)propylamine] registered an LD50 at 504 h of over 1500 mg/kg. In data set [2], the inhibition in vivo at 250 mg/kg is 57.3% and the inhibition in vivo at 500 mg/kg was 51.9%.
`CC(C)[Si](C)(C)CCSCCCN` [Example 5, 3-[[2-(Isopropyldimethylsilyl)ethyl]thio]propylamine] showed an LD50 at 504 h in data set [1] of 750 mg/kg. Moreover, in data set [2], the inhibition in vivo at 250 mg/kg is 21.4% and the inhibition in vivo at 500 mg/kg worked out at 50.6%.
Consider `CCCCCCCC[Si](C)(C)CCSCCN` [Example 1, 2-[[2-(Dimethyl-n-octylsilyl)ethyl]thio]ethylamine], for which the LD50 at 504 h in data set [1] is over 1500 mg/kg.
Still for that read-out and setting: the value for `C[Si](CCSCCN)(c1ccccc1)c1ccccc1` [Example 4, 2-[[2-(Methyldiphenylsilyl)ethyl]thio)ethylamine] was over 1500 mg/kg.
Take `CC(C)(C)[Si](C)(C)CCCSCCCNC(=O)n1cc(F)c(=O)[nH]c1=O` [compound 9, 1-{3-{[3-(t-Butyldimethylsilyl)propyl]thio}-propylcarbamoyl}-5-fluorouracil]: the inhibition in vivo at 323 mg/kg in data set [3] (setting [4]) was determined as 90.1%. The 50% lethal dose (LD50) at 504 h in data set [1] amounted to 1800 mg/kg. Also, in data set [2], the inhibition in vivo at 125 mg/kg was 55.2% and the inhibition in vivo at 250 mg/kg came out at 46.3%.
The compound `C[Si](C)(CCCSCCCN)c1ccccc1` [Example 11, 3[[3-(Dimethylphenylsilyl)propyl]thio]propylamine] returned an LD50 at 504 h in data set [1] of over 1500 mg/kg. Further, in data set [2], the inhibition in vivo at 250 mg/kg was found to be 38.7% and the inhibition in vivo at 500 mg/kg came to 45.4%.
For the compound `CC(C)[Si](C)(C)CCCSCCCNC(=O)n1cc(F)c(=O)[nH]c1=O` [compound 8, 1-{3-{[3-(Dimethylisopropylsilyl)propyl]thio}-propylcarbamoyl}-5-fluorouracil], in data set [3] (Mus musculus, 672 h, 350 mg/kg/day x 3, oral at 1st, read-out: Inhibition Ratio (%)), the inhibition in vivo at 350 mg/kg came to 90.3%. In addition, the LD50 at 504 h in data set [1] came to 2120 mg/kg. In addition, in data set [2], the inhibition in vivo at 125 mg/kg is 32.8% and the inhibition in vivo at 250 mg/kg was determined as 45.7%.
Turning to `C[Si](CCSCCNC(=O)n1cc(F)c(=O)[nH]c1=O)(c1ccccc1)c1ccccc1` [compound 4, 1-[2-[[2-(Diphenylmethylsilyl)ethyl]thio]-ethylcarbamoyl]-5-fluorouracil], the “Inhibition Ratio (%)” value in data set [3] (366 mg/kg/day x 3, oral at 1st) was determined as 32.2%. This compound also had an LD50 at 504 h in data set [1] of 1400 mg/kg.
Turning to `CCCC[Si](C)(C)CCCSCCCN` [Example 10, 3-[[3-(n-Butyldimethylsilyl)propyl)thio)propylamine], the LD50 at 504 h in data set [1] was over 1500 mg/kg. Further, in data set [2], the inhibition in vivo at 250 mg/kg turned out to be 50.4% and the inhibition in vivo at 500 mg/kg was found to be 29.8%.
Taken in the same sequence, the figures for `CC(C)[Si](C)(C)CCSCCN` [Example 2, Z-([2-(Isopropyldimethylsilyl)ethyl]thio]ethylamine] were 1620 mg/kg, 23.8% and 36.1%.
Consider `CC(C)(C)[Si](C)(C)CCCSCCNC(=O)n1cc(F)c(=O)[nH]c1=O` [compound 7, 1-{2-{[3-(Dimethyl-t-butylsilyl]propyl)thio}-ethylcarbamoyl}-5-fluorouracil], for which the inhibition in vivo at 311 mg/kg in data set [3] (Mus musculus, 672 h, 311 mg/kg/day x 3, oral at 1st, read-out: Inhibition Ratio (%)) turned out to be 81%. The compound further came in with a median lethal dose (LD50) at 504 h in data set [1] of 1380 mg/kg. Besides, the inhibition in vivo at 250 mg/kg in data set [2] was 43.1%.
Regarding `CCCCCCCC[Si](C)(C)CCSCCNC(=O)n1cc(F)c(=O)[nH]c1=O` [Reference Example 1, 1-[2-[[2-dimethyl-n-octylsilylethyl)thio]ethylcarbamoyl]-5-fluorouracil], the inhibition in vivo at 345 mg/kg in data set [3] (Mus musculus, 672 h, 345 mg/kg/day x 3, oral at 1st, read-out: Inhibition Ratio (%)) amounted to 80%. Besides, the LD50 at 504 h in data set [1] was 1580 mg/kg.
As to `CC(C)[Si](C)(C)CCSCCCNC(=O)n1cc(F)c(=O)[nH]c1=O` [compound 5, 1-[3-[[2-(Dimethylisopropylsilyl)ethyl]thio]-propylcarbamoyl]-5-fluorouracil], the inhibition in vivo at 338 mg/kg in data set [3] (setting [4]) worked out at 98.4%. In addition, the LD50 at 504 h in data set [1] turned out to be 2250 mg/kg. Moreover, in data set [2], the inhibition in vivo at 125 mg/kg was found to be 17.6% and the inhibition in vivo at 250 mg/kg was determined as 19.4%.
With `CC(C)[Si](C)(C)CCSCCNC(=O)n1cc(F)c(=O)[nH]c1=O` [Reference Example 2, 1-[2-[[2-(Dimethylisopropylsilyl)ethyl]thio]-ethylcarbamoyl]-5-fluorouracil], the inhibition in vivo at 289 mg/kg in data set [3] (Mus musculus, 672 h, 289 mg/kg/day x 3, oral at 1st, read-out: Inhibition Ratio (%)) amounted to 89.8%. Besides, in data set [1], the LD50 at 504 h was 1380 mg/kg. Besides, the inhibition in vivo at 300 mg/kg in data set [2] (300 mg/kg/day x 3, oral at 1st) came out at 79.7%.
`CC(C)(C)[Si](C)(C)CCCSCCN` [Example 7, 2[[3-(t-Butyldimethylsilyl)propyl]thio]ethylamine] registered an LD50 at 504 h in data set [1] of over 1500 mg/kg. In data set [2], the inhibition in vivo at 250 mg/kg is 50% and the inhibition in vivo at 500 mg/kg was 32.7%.
